Legend:
CDK2/CycE = target: T1, CDK2/CycE (Homo sapiens, UniProt P24941); experiment: CDK2/CycE high ATP kinase assay (Method 2b, TR-FRET); format: biochemical; conditions: 2 mM ATP
T1 construct: GST; purchased ProQinase GmbH (Freiburg, Germany); host or cells: insect cells (Sf9)
Method: 2b. CDK2/CycE High ATP Kinase Assay:
CDK2/CycE-inhibitory activity of compounds of the present invention at 2 mM adenosine-tri-phosphate (ATP) was quantified employing the CDK2/CycE TR-FRET (TR-FRET=Time Resolved Fluorescence Energy Transfer) assay as described in the following paragraphs.
Recombinant fusion proteins of GST and human CDK2 and of GST and human CycE, expressed in insect cells (Sf9) and purified by Glutathion-Sepharose affinity chromatography, were purchase from ProQinase GmbH (Freiburg, Germany). As substrate for the kinase reaction biotinylated peptide biotin-Ttds-YISPLKSPYKISEG (C-terminus in amid form) was used which can be purchased e.g. form the company JERINI peptide technologies (Berlin, Germany).
For the assay 50 nl of a 100 fold concentrated solution of the test compound in DMSO was pipetted into a black low volume 384 well microtiter plate (Greiner Bio-One, Frickenhausen, Germany), 2 μl of a solution of CDK2/CycE in aqueous assay buffer [50 mM Tris/HCl pH 8.0, 10 mM MgCl2, 1.0 mM dithiothreitol, 0.1 mM sodium ortho-vanadate, 0.01% (v/v) Nonidet-P40 (Sigma)] were added and the mixture was incubated for 15 min at 22° C. to allow pre-binding of the test compounds to the enzyme before the start of the kinase reaction. Then the kinase reaction was started by the addition of 3 μl of a solution ATP (3.33 mM=> final conc. in the 5 μl assay volume is 2 mM) and substrate (1.25 μM=> final conc. in the 5 μl assay volume is 0.75 μM) in assay buffer and the resulting mixture was incubated for a reaction time of 25 min at 22° C. […]
The resulting mixture was incubated 1 h at 22° C. to allow the formation of complex between the phosphorylated biotinylated peptide and the detection reagents. Subsequently the amount of phosphorylated substrate was evaluated by measurement of the resonance energy transfer from the Euchelate to the streptavidine-XL. Therefore, the fluorescence emissions at 620 nm and 665 nm after excitation at 350 nm wer measured in a TR-FRET reader, e.g. a Rubystar (BMG Labtechnologies, Offenburg, Germany) or a Viewlux (Perkin-Elmer). […]

A2780 cells = experiment: Proliferation assay A2780 (Method 3, crystal violet); format: cell-based; conditions: Homo sapiens, 96 h; A2780, 4 days incubation; read-out: Inhibition of A2780 cell proliferation IC50
Method: Cultivated tumour cells (HeLa, human cervical tumour cells, ATCC CCL-2; NCI-H460, human non-small cell lung carcinoma cells, ATCC HTB-177; A2780, human ovarian carcinoma cells, ECACC #93112519; DU 145, hormone-independent human prostate carcinoma cells, ATCC HTB-81; HeLa-MaTu-ADR, multidrug-resistant human cervical carcinoma cells, EPO-GmbH Berlin; Caco-2, human colorectal carcinoma cells, ATCC HTB-37; B16F10, mouse melanoma cells, ATCC CRL-6475) were plated at a density of 5,000 cells/well (DU145, HeLa-MaTu-ADR), 3,000 cells/well (NCI-H460, HeLa), 2,500 cells/well (A2780), 1,500 cells/well (Caco-2), or 1,000 cells/well (B16F10) in a 96-well multititer plate in 200 μL of their respective growth medium supplemented 10% fetal calf serum. […] Cell proliferation was determined by staining the cells with crystal violet: the cells were fixed by adding 20 μl/measuring point of an 11% glutaric aldehyde solution for 15 minutes at room temperature. […] The extinction was determined by photometry at a wavelength of 595 nm. The change of cell number, in percent, was calculated by normalization of the measured values to the extinction values of the zero-point plate (=0%) and the extinction of the untreated (0 μm) cells (=100%). […]

MOLM-13 cells = experiment: Proliferation assay MOLM-13 (Method 3, Cell Titre-Glo); format: cell-based; conditions: Homo sapiens; MOLM-13, 72-hour exposure; read-out: Inhibition of MOLM-13 cell proliferation IC50
Method: Non-adherent MOLM-13 human acute myeloid leukemia cells (DSMZ ACC 554) were seeded at a density of 5,000 cells/well in a 96-well multititer plate in 100 μL of growth medium supplemented 10% fetal calf serum. After 24 hours, cell viability of one plate (zero-point plate) was determined with the Cell Titre-Glo Luminescent Cell Viability Assay (Promega), while 50 μL of test compound containing medium was added to the wells of the other plates (final concentrations in the range of 0.001-10 μM and DMSO controls; the final concentration of the solvent dimethyl sulfoxide was 0.5%). Cell viability was assessed after 72-hour exposure with the Cell Titre-Glo Luminescent Cell Viability Assay (Promega). IC50 values (inhibitory concentration at 50% of maximal effect) were determined by means of a 4 parameter fit on measurement data which were normalized to vehicle (DMSO) treated cells (=100%) and measurement readings taken immediately before compound exposure (=0%).

SMILES | IC50 (CDK2/CycE) [µM] | IC50 (A2780 cells) [µM] | IC50 (MOLM-13 cells) [µM]
CS(=O)(=O)Cc1cccc(Nc2ncc(F)c(-c3ccc(F)c4ccoc34)n2)c1 [Example 1, 5-Fluoro-4-(4-fluoro-1-benzofuran-7-yl)-N-{3-[(methylsulfonyl)methyl]-phenyl}pyrimidin-2-amine] | 1.32 | 0.09 | 0.17
CCS(=O)(=O)Cc1cccc(Nc2ncc(F)c(-c3ccc(F)c4ccoc34)n2)c1 [Example 2, N-{3-[(Ethylsulfonyl)methyl]phenyl}-5-fluoro-4-(4-fluoro-1-benzofuran-7-yl)pyrimidin-2-amine] | 0.917 | – | –
Cc1cc(CS(C)(=O)=O)cc(Nc2ncc(F)c(-c3ccc(F)c4ccoc34)n2)c1 [Example 4, 5-Fluoro-4-(4-fluoro-1-benzofuran-7-yl)-N-{3-methyl-5-[(methylsulfonyl)methyl]-phenyl}pyrimidin-2-amine] | 8.56 | 0.038 | 0.046
